In brackets after ≈: the same amount, converted by molar mass. Like-named read-outs stand apart in the source and are kept apart here.
Columns and labels:
PrP^C in T98G cells = type: cell-based, human
T98G cells = experiment: cells; type: cell-based, human; conditions: Homo sapiens, T98G, read-out: EC50 (μM) Calcein
[1] = Hepatic microsomal stability, mouse; conditions: mouse liver microsomes
[2] = Hepatic microsomal stability, human; conditions: human liver microsomes
[3] = system: PrP^Sc in dividing ScN2a-cl3 cells; type: cell-based, mouse; set-up: Dividing ELISA pEC50 (μM) 1st Expt. / Dividing ELISA pEC50 (μM) 2nd Expt. / Dividing ELISA pEC50 (μM) 3rd Expt. / Dividing ELISA pEC50 (μM) Mean: unit not given here
[4] = system: PrP^Sc in dividing ScN2a-c13 cells; conditions: dividing ScN2a-c13 cells; for EC50: read-out: EC50 (ELISA), reduction of PrP^Sc load
[5] = system: PrP^Sc in ScN2a-cl3 cells; type: cell-based, mouse; conditions: Western immunoblots
N2a-cl3 cells [6] = conditions: mouse
in vitro = conditions: mouse
[7] = Single-dose pharmacokinetics in FVB mice (oral gavage, IV); conditions: single oral dose 10 mg/kg
[8] = system: PrP^Sc in nondividing ScN2a-cl3 cells; type: cell-based, mouse; conditions: read-out: Non-Dividing ELISA EC50 (μM) Mean (n = 3); ScN2a-c13 non-dividing cells; mean n = 3
N2a-cl3 cells [9] = experiment: cells; conditions: Mus musculus, N2a-cl3, read-out: Dividing Calcein EC50 (μM) Mean (n = 3)
[10] = read-out: EC50 (nM): ELISA, dividing ScN2a-cl3 cells
[11] = read-out: Potency (nM) ELISA (EC50), PrP^Sc ELISA, dividing ScN2a-cl3 cells
[12] = read-out: EC50 (nM): Western, ScN2a-cl3 cells
[13] = read-out: Potency (nM) Western (EC50), dividing ScN2a-cl3 cells
[14] = pH 1.2, simulated gastric fluid
[15] = ScN2a-cl3 dividing cells, 1st determination
[16] = ScN2a-cl3 dividing cells, 2nd determination
[17] = ScN2a-cl3 dividing cells, 3rd determination
[18] = read-out: Dividing ELISA EC50 (μM) 1st Expt., ScN2a-cl3 dividing cells, 1st determination
[19] = read-out: Dividing ELISA EC50 (μM) 2nd Expt., ScN2a-cl3 dividing cells, 2nd determination
[20] = read-out: Dividing ELISA EC50 (μM) 3rd Expt., ScN2a-cl3 dividing cells, 3rd determination
[21] = read-out: Dividing ELISA EC50 (μM) Mean, ScN2a-cl3 dividing cells, mean of three determinations
[22] = ScN2a-cl3 dividing cells, mean of three determinations

COc1ccc(CC(=O)NCc2ccccc2)cc1 [IND6612]
Potency relative to the bromo analog (IND61769) (PrP^C in T98G cells): equal potency to the bromo analog
EC50 (PrP^C in T98G cells; read-out: EC50 (μM) ELISA): 3.36 µM
EC50 (T98G cells): > 10 µM

O=C(Cc1ccc(Br)cc1)NCc1ccccc1 [IND61769]
EC50 (PrP^C in T98G cells; read-out: EC50 (μM) ELISA): 2.33 µM
EC50 (T98G cells): > 10 µM

O=C(Cc1ccc(-c2ccccc2)cc1)NCc1ccccc1 [IND116065]
Potency relative to the bromo analog (IND61769) (PrP^C in T98G cells): 10 times
EC50 (PrP^C in T98G cells; read-out: EC50 (μM) ELISA): 0.267 µM
EC50 (PrP^C in T98G cells; read-out: EC50 (μM) ELISA potency, PrP^C in T98G cells): 0.233 µM
EC50 (T98G cells): > 10 µM
Hepatic Extraction Ratio Mouse ([1]; predicted hepatic extraction): 0.83
half-life at 1 μM ([1]; mouse, pH 7.4): 12.3 min
Hepatic Extraction Ratio Human ([2]; predicted hepatic extraction): 0.86
half-life at 1 μM ([2]; human, pH 7.4): 11.1 min

O=C(Cc1ccc(Cl)cc1)NCc1ccccc1 [IND126416]
EC50 (PrP^C in T98G cells; read-out: EC50 (μM) ELISA): > 10 µM
EC50 (PrP^C in T98G cells; read-out: EC50, PrP^C ELISA in T98G cells): > 10 µM
EC50 (T98G cells): > 10 µM

CC(=O)c1ccc(NC(=O)c2sc3nc4c(cc3c2N)CCCC4)cc1 [IND-0024609]
EC50 ([3]; read-out: Antiprion activity EC50, thienopyridine analogs): > 10000 nM
antiprion activity (in words) [4]: inactive

O=C(Nc1nc(-c2ccc(-c3ccccc3)cc2)cs1)C1CC1 [IND-0030410]
EC50 [3, 10]: 317 nM
EC50 [3, 11]: 317 nM
EC50 [5, 12]: 194 nM
EC50 [5, 13]: 194 nM
EC50 (nM): Calcein (LC50 values from calcein assays) (N2a-cl3 cells [6]): MW: 320.4 EC50 (nM): ELISA: 317 Calcein: >10,000 Western: 194
CC50 (in vitro): > 10000 nM
solubility (physchem; [14]): 17.7 µM (≈ 5.67 µg/mL)
solubility (physchem; pH 7.4, aqueous buffer): 12.7 µM (≈ 4.07 µg/mL)

N#Cc1sc2nc(-c3ccc4c(c3)OCO4)ccc2c1N [IND-0052851]
EC50 [3, 10]: 962 nM
EC50 [3, 11]: 962 nM
EC50 [5, 12]: 518 nM
EC50 [5, 13]: 518 nM
EC50 (nM): Calcein (LC50 values from calcein assays) (N2a-cl3 cells [6]): MW: 295.3 EC50 (nM): ELISA: 962 Calcein: >10,000 Western: 518
CC50 (in vitro): > 10000 nM
Brain/Plasma AUClast Ratio ([7]; FVB mice): 2.59
AUClast ± SD, Brain ([7]; two FVB mice, brain): 2.12 ± 0.93 µM·h
AUClast ± SD, Plasma ([7]; two FVB mice, plasma): 0.82 ± 0.31 µM·h

Cc1cccc(Nc2nc(-c3ccc(-c4ccc(N(C)C)nc4)cc3)cs2)n1 [IND-0116044]
solubility (physchem; [14]): 77.1 µM (≈ 29.9 µg/mL)
solubility (physchem; pH 7.4, aqueous buffer): 14.3 µM (≈ 5.54 µg/mL)

Cc1cccc(Nc2nc(-c3ccc(-c4ccc(OC(C)C)nc4)cc3)cs2)n1 [IND-0116091]
solubility (physchem; [14]): 13.1 µM (≈ 5.27 µg/mL)
solubility (physchem; pH 7.4, aqueous buffer): 3.2 µM (≈ 1.29 µg/mL)

Cc1cccc(Nc2nc(-c3ccc(-c4cc[n+]([O-])cc4)cc3)cs2)n1 [IND-0116092]
solubility (physchem; [14]): 17.6 µM (≈ 6.34 µg/mL)
solubility (physchem; pH 7.4, aqueous buffer): 15.2 µM (≈ 5.48 µg/mL)

COCCOc1ccc(-c2ccc(-c3csc(Nc4cccc(C)n4)n3)cc2)cn1 [IND-0116094]
solubility (physchem; [14]): 62.8 µM (≈ 26.3 µg/mL)
solubility (physchem; pH 7.4, aqueous buffer): 2.2 µM (≈ 0.921 µg/mL)

Cc1cccc(Nc2nc(-c3ccc(-c4ccc[n+]([O-])c4)cc3)cs2)n1 [IND-0116097]
solubility (physchem; [14]): 49 µM (≈ 17.7 µg/mL)
solubility (physchem; pH 7.4, aqueous buffer): 5.1 µM (≈ 1.84 µg/mL)

COCCOc1cccc(Nc2nc(-c3ccc(-c4ccccc4)cc3)cs2)n1 [IND-0116102]
solubility (physchem; [14]): 2.1 µM (≈ 0.847 µg/mL)
solubility (physchem; pH 7.4, aqueous buffer): 2.7 µM (≈ 1.09 µg/mL)

Cc1cccc(Nc2nc(-c3ccc(-c4ccc(N5CCN(C)CC5)nc4)cc3)cs2)n1 [IND-0116103]
solubility (physchem; [14]): 37.1 µM (≈ 16.4 µg/mL)
solubility (physchem; pH 7.4, aqueous buffer): 4.4 µM (≈ 1.95 µg/mL)

Cc1cccc(Nc2nc(-c3ccc(-c4ccnc(N5CCN(C)CC5)c4)cc3)cs2)n1 [IND-0116134]
solubility (physchem; [14]): 81.8 µM (≈ 36.2 µg/mL)
solubility (physchem; pH 7.4, aqueous buffer): 40.2 µM (≈ 17.8 µg/mL)

CN(C)c1cc(-c2ccc(-c3csc(NC(=O)C4CC4)n3)cc2)ccn1 [IND- 116123]
solubility (physchem; [14]): > 150 µM
solubility (physchem; pH 7.4, aqueous buffer): < 0.5 µM

CNc1nc(-c2ccc(OC)c(OC)c2)cs1 [compound 5, 4-(3,4-dimethoxyphenyl)-N-methyl-1,3-thiazol-2-amine]
Dividing ELISA pEC50 (μM) 1st Expt. [3, 15]: >4.5
Dividing ELISA pEC50 (μM) 2nd Expt. [3, 16]: >4.5
Dividing ELISA pEC50 (μM) 3rd Expt. [3, 17]: >4.5
EC50 [3, 18]: > 32000 nM
EC50 [3, 19]: > 32000 nM
EC50 [3, 20]: > 32000 nM
EC50 [3, 21]: > 32000 nM
EC50 [8]: > 32 µM
melting point: 120 to 123 °C
antiprion activity (in words) [4]: without significant activity
EC50 (N2a-cl3 cells [9]): > 32 µM

COc1ccc(-c2csc(Nc3cccnc3)n2)cc1OC [compound 7, [4-(3,4-dimethoxyphenyl)-thiazol-2-yl]pyridin-3-yl-amine]
Dividing ELISA pEC50 (μM) 1st Expt. [3, 15]: 5.85
Dividing ELISA pEC50 (μM) 2nd Expt. [3, 16]: 5.94
Dividing ELISA pEC50 (μM) 3rd Expt. [3, 17]: 5.96
Dividing ELISA pEC50 (μM) Mean [3, 22]: 5.92
EC50 [3, 18]: 1410 nM
EC50 [3, 19]: 1160 nM
EC50 [3, 20]: 1100 nM
EC50 [3, 21]: 1220 nM
EC50 [8]: > 32 µM
melting point: 251 to 254 °C
EC50 [4]: 1220 nM
EC50 (N2a-cl3 cells [9]): > 32 µM

Cc1ccc(Nc2nc(C)cs2)nc1 [compound 29, (5-Methylpyridin-2-yl)-(4-methylthiazol-2-yl)-amine]
Dividing ELISA pEC50 (μM) 1st Expt. [3, 15]: >4.5
Dividing ELISA pEC50 (μM) 2nd Expt. [3, 16]: >4.5
Dividing ELISA pEC50 (μM) 3rd Expt. [3, 17]: >4.5
EC50 [3, 18]: > 32000 nM
EC50 [3, 19]: > 32000 nM
EC50 [3, 20]: > 32000 nM
EC50 [3, 21]: > 32000 nM
EC50 [8]: > 32 µM
melting point: 212 to 214 °C
antiprion activity (in words) [4]: inactive
EC50 (N2a-cl3 cells [9]): > 32 µM

COc1ccc(-c2csc(Nc3cc4ccccc4cn3)n2)cc1 [compound 30, Isoquinolin-3-yl-[4-(4-methoxyphenyl)-thiazol-2-yl]-amine]
Dividing ELISA pEC50 (μM) 1st Expt. [3, 15]: 6.65
Dividing ELISA pEC50 (μM) 2nd Expt. [3, 16]: 6.41
Dividing ELISA pEC50 (μM) 3rd Expt. [3, 17]: 6.38
Dividing ELISA pEC50 (μM) Mean [3, 22]: 6.48
EC50 [3, 18]: 226 nM
EC50 [3, 19]: 385 nM
EC50 [3, 20]: 414 nM
EC50 [3, 21]: 342 nM
EC50 [8]: > 32 µM
melting point: 224 to 228 °C
EC50 [4]: 340 nM
EC50 (N2a-cl3 cells [9]): > 32 µM

FC(F)(F)Oc1ccc(-c2csc(Nc3cc4ccccc4cn3)n2)cc1 [compound 31, Isoquinolin-3-yl-[4-(4-trifluoromethoxyphenyl)-thiazol-2-yl]-amine]
Dividing ELISA pEC50 (μM) 1st Expt. [3, 15]: >4.5
Dividing ELISA pEC50 (μM) 2nd Expt. [3, 16]: >4.5
Dividing ELISA pEC50 (μM) 3rd Expt. [3, 17]: >4.5
EC50 [3, 18]: > 32000 nM
EC50 [3, 19]: > 32000 nM
EC50 [3, 20]: > 32000 nM
EC50 [3, 21]: > 32000 nM
EC50 [8]: > 32 µM
melting point: 269 to 271 °C
antiprion activity (in words) [4]: inactive
EC50 (N2a-cl3 cells [9]): > 32 µM

Cc1csc(Nc2cc3ccccc3cn2)n1 [compound 36, Isoquinolin-3-yl-(4-methylthiazol-2-yl)-amine]
Dividing ELISA pEC50 (μM) 1st Expt. [3, 15]: >4.5
Dividing ELISA pEC50 (μM) 2nd Expt. [3, 16]: >4.5
Dividing ELISA pEC50 (μM) 3rd Expt. [3, 17]: >4.5
EC50 [3, 18]: > 32000 nM
EC50 [3, 19]: > 32000 nM
EC50 [3, 20]: > 32000 nM
EC50 [3, 21]: > 32000 nM
EC50 [8]: > 32 µM
melting point: 212 to 215 °C
antiprion activity (in words) [4]: inactive
EC50 (N2a-cl3 cells [9]): > 32 µM

FC(F)(F)c1csc(Nc2cc3ccccc3cn2)n1 [compound 37, Isoquinolin-3-yl-(4-trifluoromethylthiazol-2-yl)-amine]
Dividing ELISA pEC50 (μM) 1st Expt. [3, 15]: 5.05
Dividing ELISA pEC50 (μM) 2nd Expt. [3, 16]: 5.14
Dividing ELISA pEC50 (μM) 3rd Expt. [3, 17]: 5.01
Dividing ELISA pEC50 (μM) Mean [3, 22]: 5.07
EC50 [3, 18]: 9000 nM
EC50 [3, 19]: 7260 nM
EC50 [3, 20]: 9710 nM
EC50 [3, 21]: 8660 nM
EC50 [8]: > 32 µM
melting point: 200 to 203 °C
antiprion activity (in words) [4]: less potent
EC50 (N2a-cl3 cells [9]): > 32 µM

COc1ccc(Nc2nc(-c3cc(-c4ccccc4)no3)cs2)nc1 [compound 40, (5-Methoxypyridin-2-yl)-[4-(3-phenylisoxazol-5-yl)-thiazol-2-yl]-amine]
Dividing ELISA pEC50 (μM) 1st Expt. [3, 15]: 6.40
Dividing ELISA pEC50 (μM) 2nd Expt. [3, 16]: 6.96
Dividing ELISA pEC50 (μM) 3rd Expt. [3, 17]: 6.74
Dividing ELISA pEC50 (μM) Mean [3, 22]: 6.70
EC50 [3, 18]: 395 nM
EC50 [3, 19]: 110 nM
EC50 [3, 20]: 183 nM
EC50 [3, 21]: 229 nM
EC50 [8]: > 32 µM
melting point: 203 to 205 °C
EC50 [4]: 230 nM
EC50 (N2a-cl3 cells [9]): > 32 µM
